“Also recorded” adds a separate entry of the source. Ends that are not written are not given here.
Experiments:
[1] = system: CLL B lymphocytes (CD19+/CD5+); settings: for Effect of pre-incubation on PKHB1-mediated cell death in CLL cells: added 30 min before PKHB1 200 μM, BAPTA 5 mM, BAPTA-AM 20 μM, 2-APB 60 μM, dantrolene 40 μM, U73122 200 nM, hSIRPα-Fc 15 μg/ml; for Cytotoxicity / PCD in CLL cells (Annexin-V and PI co-positivity): 200-μM peptides, 2 h of treatment (Fig 1D, 1E)
Experimental: (§1) Mononuclear cells were purified from blood samples using a standard Ficoll-Hypaque gradient, and B cells were positively or negatively selected by magnetic microbeads coupled either to an anti-CD19 monoclonal antibody (positive selection) or to anti-CD16,-CD3, and-CD14 monoclonal antibodies (negative depletion) (Miltenyi Biotech). […] B lymphocytes, MEC-1, and M210B4 bone marrow stromal cells (ATCC) were cultured in complete medium (RPMI 1640 supplemented with 10% fetal calf serum, 2 mM L-glutamine, and 100 U/ml penicillin-streptomycin). In selected experiments, CLL cells were cultured in Ca^2+-free medium (RPMI 1640 without calcium, supplemented with dialyzed 10% fetal calf serum) prior to the induction of cell death.
(§2) Annexin-V-APC (0.1 μg/ml; BD Biosciences) was used for the assessment of phosphatidylserine exposure, propidium iodide (PI, 0.5 μg/ml) for cell viability analysis, and tetramethylrhodamine ethyl ester (TMRE, 20 nM) for mitochondrial transmembrane potential (ΔΨm) quantification. PCD was recorded in a FACSCanto II (BD Biosciences) in the total population (10,000 cells), and data were analyzed using FlowJo software. Chymotrypsin-like serine protease (serpase) or caspase cytofluorometric detection was performed with SerPase or Caspase activity kits from Imgenex (IMI-2301 and IMI-2315). Residual and leukemic B cells from CLL patients were discriminated from the mononuclear blood fraction by double labeling with anti-CD19 PerCP-Cyc5.5 (clone SJ25C1; BD Biosciences) and anti-CD5-PE-Cy7 mAb (clone L17F12; BD Biosciences). T cells from CLL patients were identified by a double anti-CD19 PerCP-Cyc5.5 and anti-CD3-PE-Cy7 (clone SK7; BD Biosciences) staining. Calreticulin cell surface exposure was recorded with anti-calreticulin-PE (clone FMC75; Assay Designs). […] A QuantiBRITE flow cytometry system (BD Biosciences) was used to assess the number of CD47 molecules expressed on normal and CLL B lymphocytes.
To induce PCD, 1 × 10^6 cells/ml were treated for 2 h with PKHB1 (200 μM), 4N1K (300 μM), 4NGG (300 μM), or an anti-CD47 monoclonal antibody ([…], clone B6H12 in soluble or immobilized conditions). To provide pro-survival microenvironment signals, CLL cells were pre-incubated with sCD40L (5 μg/ml) and IL-4 (20 ng/ml) or co-cultured with the M210B4 bone marrow stromal cell line (ATCC) before death was induced. To control for caspase-dependent apoptosis, cells were incubated for 12 h with etoposide (250 μM). For the inhibition assays, BAPTA-AM (20 μM); BAPTA (5 mM); Ru360 (750 nM); dantrolene (40 μM); 2-aminoethoxydiphenyl borate (2-APB, 60 μM); U73122 (200 nM); the broad spectrum caspase inhibitors Q-VD-OPh (QVD, 10 μM) and z-VAD-FMK (50 μM); the specific caspase inhibitors z-DEVD-FMK (50 μM, caspase-3/7), z-LEHD-FMK (50 μM, […]), and z-IETD-FMK (50 μM, […]); the serpase inhibitor TPCK (20 μM); or the fusion protein hSIRPα-Fc (15 μg/ml) was added 30 min before inducing PCD.

[2] = Peptide degradation assay in human serum (HPLC); assay type: in vitro ADME; settings: peptide 10 mg/ml in 1:4 human serum/RPMI 1640, 37°C, absorbance 220 nm
Experimental: 4N1K or PKHB1 (10 mg/ml), diluted in a 1:4 human serum/RPMI 1640 mixture, was incubated at 37°C for different lengths of time, then mixed with ethanol and 5 ml of 1 M NaOH and incubated at 4°C for at least 15 min to precipitate serum proteins. The supernatant was collected and injected in an HPLC system, and the soluble peptide was eluted by a linear gradient of 5% to 50% ACN (0.1% [v/v] TFA in acetonitrile) in aqueous 0.1% (v/v) TFA. The concentration of the peptide was calculated by the integration of the absorbance at 220 nm as a function of the retention time.

[3] = system: CD19+/CD5- B cells (residual B cells); assay: Cell death by Annexin-V/PI in residual B cells of CLL patients; assay type: cell-based, human; settings: 200 μM, 2 h; n = 20 (Fig 1G)
Experimental: as §2, with “lymphocytes. […]” for “lymphocytes.”

CD19-/CD3+ T cells = assay: Cell death by Annexin-V/PI in T cells of CLL patients; assay type: cell-based, human; settings: 200 μM, 2 h; n = 8 (Fig 1G)
Experimental: as §2, with “lymphocytes. […]” for “lymphocytes.”

[4] = Mice toxicity studies (hematology, kidney and liver histology); assay type: in vivo, mouse (NSG; settings: weekly intraperitoneal injection, 10 mg/kg, 3 wk, NSG or C57BL/6 mice (S9 Fig)
Experimental: In mice toxicity studies, we used the same injection protocol as in xenografted NSG mice. The hematological parameters were monitored in blood drawn from the retro-orbital plexus from either vehicle- (PBS) or PKHB1-treated wild-type mice (C57BL/6) with an MS9–5 analyzer (Melet Schloesing). Kidneys and livers (24 h after the third injection of PBS or PKHB1) were fixed and embedded in paraffin. Paraffin sections ([…] thick) of kidney and liver were deparaffinized and rehydrated before staining with periodic acid—Schiff and hematoxylin-eosin, respectively.

MEC-1 tumors = assay: CLL-xenograft model: MEC-1 tumors in NSG mice; assay type: in vivo, mouse (NOD/scid gamma); settings: weekly intraperitoneal injection; n = 8 per group (Fig 7C)
Experimental: In the CLL-xenograft model, MEC-1 cells (3 × 10^6) were injected subcutaneously into NOD/scid gamma (NSG) mice. When the tumor volume reached 100 mm^3, mice received intraperitoneal injections of PBS, PKHB1, or 4N1K (200 μg in 200 μl of PBS) once a week. Tumor size was measured with a caliper, and tumor volume was calculated using the formula (length × width^2)/2 and expressed in cubic millimeters. Alternatively, at 28 d after the engraftment, XenoLight RediJect 2-DG 750 Probe (Caliper) was injected into the retro-orbital sinus to visualize tumor glucose uptake, which reflects cell proliferation. Fluorescence was measured using an in vivo imaging system FX Pro (Kodak), and pictures were analyzed with Carestream Molecular Imaging software.
To determine hemoglobin levels, tumors were excised from euthanized mice, weighed, and homogenized in PBS. After centrifugation, formic acid was added to the supernatant, and the hemoglobin concentration was calculated based on the absorbance at 405 nm.
To assess PCD, calreticulin exposure, and PLCγ1-Y783, dissociated tumors were digested in medium containing Liberase-TL (Roche), DNase-I (Calbiochem), and Collagenase-IV (Life Technologies). Single-cell suspension, obtained by filtering through a […] cell strainer, was analyzed by flow cytometry.

MEC-1 cells = assay: Cell death by Annexin-V/PI in MEC-1 cells; assay type: cell-based, human; settings: PKHB1 200 μM, 2 h; etoposide 250 μM, 12 h (S7, S8 Figs)
Experimental: as §1
Annexin-V-APC (0.1 μg/ml; BD Biosciences) was used for the assessment of phosphatidylserine exposure, propidium iodide (PI, 0.5 μg/ml) for cell viability analysis, and tetramethylrhodamine ethyl ester (TMRE, 20 nM) for mitochondrial transmembrane potential (ΔΨm) quantification. PCD was recorded in a FACSCanto II (BD Biosciences) in the total population (10,000 cells), and data were analyzed using FlowJo software. […] Calreticulin cell surface exposure was recorded with anti-calreticulin-PE (clone FMC75; Assay Designs). […]

CLL cells = assay: Caspase activity (FAM caspase detection kit) in CLL cells; assay type: cell-based, human; settings: PKHB1 200 μM, 2 h; etoposide 250 μM, 12 h; representative CLL donor (Fig 2G)
CD47 [5] = biological target: CD47 (Homo sapiens, UniProt Q08722); assay: Binding to CD47 (fluorescence polarization, isothermal titration calorimetry, microscale thermophoresis); settings: isothermal titration calorimetry and microscale thermophoresis binding assays (methods per ref 82), read-out: Dissociation constant (Kd) to CD47
Source text: Supplementary file pmed.1001796.s002.tif: S2 Fig Primary structure of 4NGG, 4N1K, and PKHB1. In 4NGG, the two central valines of 4N1K were replaced by glycines (highlighted in red). In PKHB1, the N- and C-terminal lysines of 4N1K were replaced with their D counterparts (highlighted in green). […] (TIF) Click here for additional data file.

CD47 [6] = biological target: T1, CD47 (UniProt Q08722 19-323); assay: fluorescence polarisation + ITC + MST; not told; one Kd is printed for each peptide for the three methods together; the legend refers to ref. 82
T1 construct: CD47; in the cell death assays it is the endogenous CD47 on human CLL B cells; the CD47 preparation is not described; also called cell surface receptor CD47
T1 sequence (Q08722 19-323): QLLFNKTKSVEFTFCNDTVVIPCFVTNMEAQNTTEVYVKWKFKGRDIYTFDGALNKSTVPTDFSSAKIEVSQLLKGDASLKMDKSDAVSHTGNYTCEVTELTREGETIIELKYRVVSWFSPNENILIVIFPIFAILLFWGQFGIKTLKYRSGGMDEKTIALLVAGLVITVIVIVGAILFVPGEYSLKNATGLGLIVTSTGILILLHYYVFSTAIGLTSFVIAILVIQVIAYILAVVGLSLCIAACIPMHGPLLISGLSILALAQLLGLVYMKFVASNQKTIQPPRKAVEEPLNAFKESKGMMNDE

Chain of CD47 (Homo sapiens, UniProt Q08722) (Q08722 19-323): as above

Molecule: NCCOB(c1ccccc1)c1ccccc1 [2-APB, 2-aminoethoxydiphenyl borate]
- Effect of pre-incubation on PKHB1-mediated cell death in CLL cells ([1]; 2 h): significantly decreased

Molecule: CSCC[C@H](NC(=O)[C@@H](NC(=O)[C@@H](NC(=O)[C@H](Cc1ccc(O)cc1)NC(=O)[C@H](Cc1ccccc1)NC(=O)[C@H](CCCNC(=N)N)NC(=O)[C@@H](N)CCCCN)C(C)C)C(C)C)C(=O)N[C@@H](Cc1c[nH]c2ccccc12)C(=O)N[C@@H](CCCCN)C(=O)N[C@@H](CCCCN)C(=O)O [4N1K]
- metabolised at 1 h, 10 mg/ml ([2]; human serum diluted 1:4 in RPMI 1640, 1-h incubation, serum proteins precipitated with ethanol/NaOH, read-out: Peptide degraded in human serum): > 90%
- Cytotoxicity / PCD in CLL cells (Annexin-V and PI co-positivity) [1]: ~ 25%

Molecule: CC(=O)OCOC(=O)CN(CC(=O)OCOC(C)=O)c1ccccc1OCCOc1ccccc1N(CC(=O)OCOC(C)=O)CC(=O)OCOC(C)=O [BAPTA-AM]
- Effect of pre-incubation on PKHB1-mediated cell death in CLL cells ([1]; 2 h): significantly decreased

Molecule: O=C(O)CN(CC(=O)O)c1ccccc1OCCOc1ccccc1N(CC(=O)O)CC(=O)O [BAPTA]
- Effect of pre-incubation on PKHB1-mediated cell death in CLL cells ([1]; 2 h): abolished

Molecule: CSCC[C@H](NC(=O)[C@@H](NC(=O)[C@@H](NC(=O)[C@H](Cc1ccc(O)cc1)NC(=O)[C@H](Cc1ccccc1)NC(=O)[C@H](CCCNC(=N)N)NC(=O)[C@H](N)CCCCN)C(C)C)C(C)C)C(=O)N[C@@H](Cc1c[nH]c2ccccc12)C(=O)N[C@@H](CCCCN)C(=O)N[C@H](CCCCN)C(=O)O [PKHB1]
- Degradation during long-term incubation in human serum ([2]; long-term incubation): not degraded
- Cytotoxicity in residual CD5- B lymphocytes of CLL patients [3]: ~ 5%
- Cytotoxicity in T cells of CLL patients (CD19-/CD3+ T cells): ~ 10%
- Blood, liver, kidney toxicity [4]: no toxic effect; also recorded: No blood, liver, or kidney toxicity
- Cytotoxicity / PCD in CLL cells (Annexin-V and PI co-positivity) [1]: ~ 49%
- Anemia (hemoglobin levels within the engrafted tumors) (MEC-1 tumors): did not provoke anemia

Molecule: COc1ccc2c(c1)CC[C@@H]1[C@@H]2CC[C@]2(C)[C@@H](NCCCCCCN3C(=O)C=CC3=O)CC[C@@H]12 [U73122]
- Effect of pre-incubation on PKHB1-mediated cell death in CLL cells ([1]; 2 h): significantly decreased PCD

Molecule: O=C1CN(/N=C/c2ccc(-c3ccc([N+](=O)[O-])cc3)o2)C(O)=N1 [dantrolene]
- Effect of pre-incubation on PKHB1-mediated cell death in CLL cells ([1]; 2 h): significantly decreased

Molecule: COc1cc([C@@H]2c3cc4c(cc3[C@@H](O[C@@H]3O[C@@H]5CO[C@@H](C)O[C@H]5[C@H](O)[C@H]3O)[C@H]3COC(=O)[C@H]23)OCO4)cc(OC)c1O [etoposide]
- Cell death response of MEC-1 cells (dysfunctional TP53) (MEC-1 cells): resistant to etoposide treatment
- Activated caspases, positive cells (CLL cells): ~ 47%
- Cell death response with microenvironment survival signals (sCD40L + IL-4 or M210B4 bone marrow stromal cells) ([1]; PKHB1 200 μM, 2 h, etoposide 250 μM, 12 h, n = 8 patients (Fig 2B)): significantly diminished

Molecule: KRFYGGMWKK [4NGG]
- Kd (CD47 [5]): 1000 µM

B1: PKHB1 (peptide)
peptide: KRFYVVMWKK
modifications: D-lysine at the N-terminus and D-lysine at the C-terminus (printed as lower-case k)
notes: N-terminal lysine, not part of thrombospondin-1 (introduced in 4N1K to improve solubility); here the D analogue; stretch of the C-terminal domain of thrombospondin-1 (TSP1); C-terminal lysine, not part of thrombospondin-1 (introduced in 4N1K to improve solubility); 4N1K with its N- and C-terminal lysines replaced by their D counterparts; also called k-R-F-Y-V-V-M-W-K-k; source: synthetic peptide …
- Kd (CD47 [6]): 0.4 µM

B2: 4N1K (peptide)
peptide: KRFYVVMWKK
notes: N-terminal lysine introduced to improve solubility, not part of thrombospondin-1; stretch of the C-terminal domain of thrombospondin-1 (TSP1); C-terminal lysine introduced to improve solubility, not part of thrombospondin-1; also called K-R-F-Y-V-V-M-W-K-K; TSP1-derived decapeptide; source: synthetic peptide (solid-phase synthesis, purified by reverse phase HPLC, purity greater than 95%)
- Kd (CD47 [6]): 1.5 µM

— PMC4348493, “CD47 Agonist Peptides Induce Programmed Cell Death in Refractory Chronic Lymphocytic Leukemia B Cells via PLCγ1 Activation: Evidence from Mice and Humans” (PLoS Medicine, 2015)
